Values after ≈ are worked out from the molar mass of the structure shown.
Tested on: Mycobacterium tuberculosis
Assay: Antitubercular activity against Mycobacterium tuberculosis H37Ra
Format: functional

## C=C[C@H]1C=C[C@@H]2[C@@H]3[C@@H](Oc4ccc(cc4)C[C@@]4(O)C[C@H](C(=O)N4)C(=O)[C@@H]13)[C@@H]1CC[C@@H](C)C[C@@]21C
  MIC: 0.78 µg/mL (≈ 1.69 µM)

— ChEMBL document CHEMBL5120959, “Pyrrospirones K-Q, Decahydrofluorene-Class Alkaloids from the Marine-Derived Fungus Penicillium sp. SCSIO 41512” (J Nat Prod, 2022)
